Source: PMC11167047 (Cell Death Discovery, 2024)

Columns and labels:
Assay in all cases: kinome screen (33PanQinase)
Type in all cases: biochemical
RPS6KA3 = target: T1, RPS6KA3 (Homo sapiens, UniProt P51812)
T1 construct: purchased Reaction Biology Europe GmbH (formerly ProQinase)
Description: (§1) The Kinome Screening was performed by Reaction Biology Europe GmbH (http://reactionbiology.com; Freiburg i. Br., Germany).

CHK1 = target: T2, CHK1 (Homo sapiens, UniProt O14757)
T2 construct: purchased Reaction Biology Europe GmbH (formerly ProQinase)
T2 sequence (O14757 1-476): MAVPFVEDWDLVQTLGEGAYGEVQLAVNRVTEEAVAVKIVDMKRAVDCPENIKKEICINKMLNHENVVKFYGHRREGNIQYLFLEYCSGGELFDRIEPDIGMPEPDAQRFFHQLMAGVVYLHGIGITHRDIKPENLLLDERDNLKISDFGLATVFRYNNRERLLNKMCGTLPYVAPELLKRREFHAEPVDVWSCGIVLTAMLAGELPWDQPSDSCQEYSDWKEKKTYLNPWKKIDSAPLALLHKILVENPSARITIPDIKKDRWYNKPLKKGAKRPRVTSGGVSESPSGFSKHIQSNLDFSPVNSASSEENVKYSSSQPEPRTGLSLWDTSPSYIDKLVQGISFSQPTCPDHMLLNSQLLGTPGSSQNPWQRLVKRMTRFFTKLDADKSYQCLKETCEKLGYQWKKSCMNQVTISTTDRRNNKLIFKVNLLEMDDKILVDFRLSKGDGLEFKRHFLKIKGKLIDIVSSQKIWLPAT
Description: as §1

MAP3K7/MAP3K7IP1 = target: T3, MAP3K7/MAP3K7IP1 (Homo sapiens, UniProt O43318)
T3 construct: purchased Reaction Biology Europe GmbH (formerly ProQinase)
T3 sequence (O43318 1-303 limits assumed): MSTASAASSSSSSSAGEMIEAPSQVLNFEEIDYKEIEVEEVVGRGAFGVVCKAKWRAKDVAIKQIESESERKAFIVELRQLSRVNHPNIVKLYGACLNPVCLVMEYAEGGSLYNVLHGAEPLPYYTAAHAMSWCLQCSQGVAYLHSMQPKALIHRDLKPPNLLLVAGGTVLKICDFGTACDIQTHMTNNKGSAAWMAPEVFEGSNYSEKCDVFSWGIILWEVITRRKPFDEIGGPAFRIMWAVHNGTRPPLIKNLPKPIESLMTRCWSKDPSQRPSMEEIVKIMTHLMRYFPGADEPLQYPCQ
T3 sequence (Q15750 437-504 partner limits assumed): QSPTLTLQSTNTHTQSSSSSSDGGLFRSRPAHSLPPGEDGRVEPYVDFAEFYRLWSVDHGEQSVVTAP
Description: as §1

CDC42BPB = target: T4, CDC42BPB (Homo sapiens, UniProt Q9Y5S2)
T4 construct: purchased Reaction Biology Europe GmbH (formerly ProQinase)
T4 sequence (Q9Y5S2 whole entry): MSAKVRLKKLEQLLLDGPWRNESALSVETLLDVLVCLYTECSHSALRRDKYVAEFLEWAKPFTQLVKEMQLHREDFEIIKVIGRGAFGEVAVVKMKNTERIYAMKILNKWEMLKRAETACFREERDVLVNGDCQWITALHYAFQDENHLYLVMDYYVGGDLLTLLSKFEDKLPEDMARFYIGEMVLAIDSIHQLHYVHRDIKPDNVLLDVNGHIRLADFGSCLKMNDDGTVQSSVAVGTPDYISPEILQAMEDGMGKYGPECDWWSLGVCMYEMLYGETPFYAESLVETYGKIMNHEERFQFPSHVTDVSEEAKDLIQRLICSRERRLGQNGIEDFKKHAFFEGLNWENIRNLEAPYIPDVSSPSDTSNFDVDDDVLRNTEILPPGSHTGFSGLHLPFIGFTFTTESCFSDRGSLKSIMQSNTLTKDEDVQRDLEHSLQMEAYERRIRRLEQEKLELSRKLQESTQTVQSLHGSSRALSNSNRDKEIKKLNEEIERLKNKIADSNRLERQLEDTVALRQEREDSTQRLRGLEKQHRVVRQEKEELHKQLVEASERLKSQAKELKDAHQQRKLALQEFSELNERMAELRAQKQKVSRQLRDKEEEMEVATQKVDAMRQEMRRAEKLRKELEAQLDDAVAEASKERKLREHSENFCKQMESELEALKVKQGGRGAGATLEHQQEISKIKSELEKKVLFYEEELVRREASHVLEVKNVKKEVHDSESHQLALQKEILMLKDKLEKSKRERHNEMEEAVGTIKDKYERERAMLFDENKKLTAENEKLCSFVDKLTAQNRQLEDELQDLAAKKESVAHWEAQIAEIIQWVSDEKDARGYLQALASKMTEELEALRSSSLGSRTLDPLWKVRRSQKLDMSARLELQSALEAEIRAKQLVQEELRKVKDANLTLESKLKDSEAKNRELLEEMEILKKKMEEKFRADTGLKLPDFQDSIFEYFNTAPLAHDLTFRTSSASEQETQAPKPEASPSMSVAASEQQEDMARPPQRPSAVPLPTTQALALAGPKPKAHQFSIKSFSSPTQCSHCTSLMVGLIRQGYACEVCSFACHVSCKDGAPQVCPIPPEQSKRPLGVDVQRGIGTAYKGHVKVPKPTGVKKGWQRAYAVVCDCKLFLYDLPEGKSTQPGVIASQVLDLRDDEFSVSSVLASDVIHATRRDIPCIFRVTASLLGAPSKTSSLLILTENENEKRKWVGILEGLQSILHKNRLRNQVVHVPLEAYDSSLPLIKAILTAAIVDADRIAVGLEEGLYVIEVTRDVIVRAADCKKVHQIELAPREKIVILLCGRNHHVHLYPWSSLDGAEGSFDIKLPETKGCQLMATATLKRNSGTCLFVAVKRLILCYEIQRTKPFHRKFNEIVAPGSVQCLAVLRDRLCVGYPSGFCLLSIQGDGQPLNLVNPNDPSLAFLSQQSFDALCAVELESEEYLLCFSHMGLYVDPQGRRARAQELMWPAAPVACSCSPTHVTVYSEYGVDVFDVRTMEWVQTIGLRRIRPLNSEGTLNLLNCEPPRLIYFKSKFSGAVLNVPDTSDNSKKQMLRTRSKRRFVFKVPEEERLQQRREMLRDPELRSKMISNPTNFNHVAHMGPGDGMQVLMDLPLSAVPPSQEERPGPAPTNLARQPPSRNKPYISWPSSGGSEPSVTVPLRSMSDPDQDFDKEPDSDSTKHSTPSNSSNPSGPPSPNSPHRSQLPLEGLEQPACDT
Description: as §1

BMPR1A = target: T5, BMPR1A (Homo sapiens, UniProt P36894)
T5 construct: purchased Reaction Biology Europe GmbH (formerly ProQinase)
T5 sequence (P36894 24-532): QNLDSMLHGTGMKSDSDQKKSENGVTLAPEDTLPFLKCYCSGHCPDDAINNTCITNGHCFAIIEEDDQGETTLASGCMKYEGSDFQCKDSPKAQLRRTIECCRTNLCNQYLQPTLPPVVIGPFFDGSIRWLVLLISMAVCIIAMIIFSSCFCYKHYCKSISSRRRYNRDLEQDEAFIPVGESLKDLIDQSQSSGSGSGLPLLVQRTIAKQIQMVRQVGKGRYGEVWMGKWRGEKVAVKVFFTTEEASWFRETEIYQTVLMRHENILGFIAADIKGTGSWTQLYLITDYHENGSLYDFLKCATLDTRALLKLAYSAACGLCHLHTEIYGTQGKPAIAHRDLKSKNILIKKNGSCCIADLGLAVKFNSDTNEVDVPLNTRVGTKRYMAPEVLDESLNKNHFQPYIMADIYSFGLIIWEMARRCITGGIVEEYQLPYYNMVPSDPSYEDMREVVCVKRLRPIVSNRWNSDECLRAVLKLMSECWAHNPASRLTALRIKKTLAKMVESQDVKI
Description: as §1

CK1ε = target: T6, CK1ε (Homo sapiens, UniProt P49674)
T6 construct: purchased Reaction Biology Europe GmbH (formerly ProQinase)
T6 sequence (P49674 whole entry): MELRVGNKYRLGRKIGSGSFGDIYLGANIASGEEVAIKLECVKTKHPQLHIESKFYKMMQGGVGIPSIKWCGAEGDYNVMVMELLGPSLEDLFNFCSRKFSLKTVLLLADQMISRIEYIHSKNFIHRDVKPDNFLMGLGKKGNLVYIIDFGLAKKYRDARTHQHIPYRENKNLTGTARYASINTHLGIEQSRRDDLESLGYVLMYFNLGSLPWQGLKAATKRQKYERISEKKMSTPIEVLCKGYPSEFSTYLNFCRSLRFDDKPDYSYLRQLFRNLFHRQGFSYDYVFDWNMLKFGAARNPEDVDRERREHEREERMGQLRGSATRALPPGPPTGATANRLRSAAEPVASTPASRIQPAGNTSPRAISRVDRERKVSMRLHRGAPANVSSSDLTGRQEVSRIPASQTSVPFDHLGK
Description: as §1

CDK3/CycE1 = target: T7, CDK3/CycE1 (Homo sapiens, UniProt Q00526)
T7 construct: purchased Reaction Biology Europe GmbH (formerly ProQinase)
T7 sequence (Q00526 whole entry): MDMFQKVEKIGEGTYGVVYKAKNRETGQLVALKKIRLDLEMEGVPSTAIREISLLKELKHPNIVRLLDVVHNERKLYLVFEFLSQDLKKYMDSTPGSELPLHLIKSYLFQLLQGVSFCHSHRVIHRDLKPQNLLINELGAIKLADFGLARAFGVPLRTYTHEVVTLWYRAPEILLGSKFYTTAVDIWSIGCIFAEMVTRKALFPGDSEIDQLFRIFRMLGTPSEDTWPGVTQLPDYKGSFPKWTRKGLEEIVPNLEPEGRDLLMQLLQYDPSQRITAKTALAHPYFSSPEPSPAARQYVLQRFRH
T7 sequence (P24864 whole entry partner): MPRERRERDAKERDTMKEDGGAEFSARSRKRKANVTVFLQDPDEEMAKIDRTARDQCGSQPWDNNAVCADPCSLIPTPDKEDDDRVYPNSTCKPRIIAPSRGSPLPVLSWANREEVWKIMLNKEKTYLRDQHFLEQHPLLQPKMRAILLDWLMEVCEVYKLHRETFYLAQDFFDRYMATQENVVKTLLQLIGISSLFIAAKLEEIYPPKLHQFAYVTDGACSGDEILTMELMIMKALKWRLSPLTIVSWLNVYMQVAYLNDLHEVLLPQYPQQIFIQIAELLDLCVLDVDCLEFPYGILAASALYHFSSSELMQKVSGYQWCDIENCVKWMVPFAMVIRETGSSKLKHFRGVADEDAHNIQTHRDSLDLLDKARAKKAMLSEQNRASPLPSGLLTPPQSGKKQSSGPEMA
Description: as §1

EEF2K = target: T8, EEF2K (Homo sapiens, UniProt O00418)
T8 construct: purchased Reaction Biology Europe GmbH (formerly ProQinase)
T8 sequence (O00418 1-725): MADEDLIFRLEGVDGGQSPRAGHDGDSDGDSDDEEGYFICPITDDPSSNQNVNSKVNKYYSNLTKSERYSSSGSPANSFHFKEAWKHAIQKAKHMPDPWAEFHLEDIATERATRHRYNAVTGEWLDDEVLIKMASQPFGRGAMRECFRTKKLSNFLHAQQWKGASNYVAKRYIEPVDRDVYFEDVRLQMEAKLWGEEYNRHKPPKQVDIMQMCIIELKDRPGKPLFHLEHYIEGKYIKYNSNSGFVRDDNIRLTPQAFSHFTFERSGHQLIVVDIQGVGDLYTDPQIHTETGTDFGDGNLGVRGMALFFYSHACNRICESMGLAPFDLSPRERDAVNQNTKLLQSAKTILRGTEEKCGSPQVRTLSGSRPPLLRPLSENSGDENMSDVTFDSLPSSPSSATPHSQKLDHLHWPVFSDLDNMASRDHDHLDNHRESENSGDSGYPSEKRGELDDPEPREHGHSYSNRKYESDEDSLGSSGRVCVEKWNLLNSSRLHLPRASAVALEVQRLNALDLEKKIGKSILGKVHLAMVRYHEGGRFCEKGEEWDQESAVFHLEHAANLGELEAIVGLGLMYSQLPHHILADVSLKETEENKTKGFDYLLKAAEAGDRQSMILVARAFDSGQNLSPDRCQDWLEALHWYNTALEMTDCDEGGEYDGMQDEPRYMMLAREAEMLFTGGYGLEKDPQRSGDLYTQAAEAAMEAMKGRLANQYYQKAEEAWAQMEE
Description: as §1

CK1γ1 = target: T9, CK1γ1 (Homo sapiens, UniProt Q9HCP0)
T9 construct: purchased Reaction Biology Europe GmbH (formerly ProQinase)
T9 sequence (Q9HCP0 whole entry): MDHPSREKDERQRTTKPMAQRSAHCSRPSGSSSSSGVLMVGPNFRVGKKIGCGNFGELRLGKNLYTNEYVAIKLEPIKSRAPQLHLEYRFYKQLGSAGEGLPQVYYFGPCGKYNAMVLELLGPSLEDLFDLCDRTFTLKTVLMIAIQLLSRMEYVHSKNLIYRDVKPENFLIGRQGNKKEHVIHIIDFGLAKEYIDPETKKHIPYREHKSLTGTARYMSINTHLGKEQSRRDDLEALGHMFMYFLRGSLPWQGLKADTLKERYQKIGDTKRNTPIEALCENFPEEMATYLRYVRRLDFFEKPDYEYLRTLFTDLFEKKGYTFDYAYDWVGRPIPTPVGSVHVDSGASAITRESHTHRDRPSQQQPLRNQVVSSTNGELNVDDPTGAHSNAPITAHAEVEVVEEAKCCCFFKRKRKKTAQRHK
Description: as §1

T1 sequence (P51812 whole entry): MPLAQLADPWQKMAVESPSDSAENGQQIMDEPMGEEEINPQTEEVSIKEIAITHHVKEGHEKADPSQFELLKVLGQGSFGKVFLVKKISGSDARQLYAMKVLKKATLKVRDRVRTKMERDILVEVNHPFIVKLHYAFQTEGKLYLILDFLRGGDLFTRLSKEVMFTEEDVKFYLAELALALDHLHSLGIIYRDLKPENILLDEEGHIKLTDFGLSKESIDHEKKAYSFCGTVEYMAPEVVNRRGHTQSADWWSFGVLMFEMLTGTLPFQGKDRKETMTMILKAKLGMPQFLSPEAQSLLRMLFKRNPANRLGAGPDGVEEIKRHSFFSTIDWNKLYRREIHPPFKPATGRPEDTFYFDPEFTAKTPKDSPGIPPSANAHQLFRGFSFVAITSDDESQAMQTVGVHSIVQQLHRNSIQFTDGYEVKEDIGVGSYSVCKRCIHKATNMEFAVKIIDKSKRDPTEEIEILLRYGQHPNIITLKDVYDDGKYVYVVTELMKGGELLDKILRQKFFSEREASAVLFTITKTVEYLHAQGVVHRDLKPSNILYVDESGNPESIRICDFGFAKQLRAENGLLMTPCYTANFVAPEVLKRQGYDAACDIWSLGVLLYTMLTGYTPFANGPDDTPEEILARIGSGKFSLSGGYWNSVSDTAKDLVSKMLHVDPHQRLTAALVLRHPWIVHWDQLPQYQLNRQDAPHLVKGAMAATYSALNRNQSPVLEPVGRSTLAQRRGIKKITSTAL

Structure (SMILES)	residual kinase activity (RPS6KA3; 0.3 µM)	residual kinase activity (CHK1; 0.3 µM)	residual kinase activity (MAP3K7/MAP3K7IP1; 0.3 µM)	residual kinase activity (CDC42BPB; 0.3 µM)	residual kinase activity (BMPR1A; 0.3 µM)	residual kinase activity (CK1ε; 0.3 µM)	residual kinase activity (CDK3/CycE1; 0.3 µM)	residual kinase activity (EEF2K; 0.3 µM)	residual kinase activity (CK1γ1; 0.3 µM)	further results
c1ccc(CNc2cc(-c3c[nH]c4ncccc34)ccn2)cc1 [meriolin 36]	7 % of control	76 % of control	15 % of control	0 % of control	105 % of control	86 % of control	1 % of control	84 % of control	23 % of control	residual kinase activity (RPS6KA3; 3 µM): 1 % of control; residual kinase activity (CHK1; 3 µM): 40 % of control; residual kinase activity (MAP3K7/MAP3K7IP1; 3 µM): 5 % of control; residual kinase activity (CDC42BPB; 3 µM): 0 % of control; residual kinase activity (BMPR1A; 3 µM): 61 % of control; residual kinase activity (CK1ε; 3 µM): 23 % of control; residual kinase activity (CDK3/CycE1; 3 µM): -1 % of control; residual kinase activity (EEF2K; 3 µM): 97 % of control; residual kinase activity (CK1γ1; 3 µM): 3 % of control
COc1ccnc2[nH]cc(-c3cc(N)nc(N)c3)c12 [meriolin 16]	39 % of control	87 % of control	17 % of control	2 % of control	94 % of control	41 % of control	5 % of control	89 % of control	38 % of control	residual kinase activity (RPS6KA3; 0.03 µM): 85 % of control; residual kinase activity (CHK1; 0.03 µM): 96 % of control; residual kinase activity (MAP3K7/MAP3K7IP1; 0.03 µM): 54 % of control; residual kinase activity (CDC42BPB; 0.03 µM): 37 % of control; residual kinase activity (BMPR1A; 0.03 µM): 94 % of control; residual kinase activity (CK1ε; 0.03 µM): 112 % of control; residual kinase activity (CDK3/CycE1; 0.03 µM): 36 % of control; residual kinase activity (EEF2K; 0.03 µM): 96 % of control; residual kinase activity (CK1γ1; 0.03 µM): 87 % of control
